Values of other authors as cited in patent US7303775B1, “Carbohydrate ruminant feed energy supplement and method” (Penn State Research Foundation, priority 2003, dated 2007).

Legend:
insulin = settings: compared with sucrose or glucose
glucagon = settings: oral, same dose, humans
rat liver = settings: compared with glucose

## O=C(CO)[C@@H](O)[C@H](O)[C@H](O)CO [fructose]
insulin
  potency as insulin secretagogue: less potent
glucagon
  effect on glucagon: did not
Rat liver
  rate of conversion to fat by rat liver: much higher rate

## OC[C@H]1O[C@@](CO)(O[C@H]2O[C@H](CO)[C@@H](O)[C@H](O)[C@H]2O)[C@@H](O)[C@@H]1O [sucrose, reference compound]
glucagon
  effect on glucagon: decline
